System: parasites (ring stage, in human red blood cell culture)
Assay: Parasite LDH growth assay (antiparasite potency, Parasite Assay)
Type: cell-based, Plasmodium falciparum
Details: 0.7% rings, 2% haematocrit, 72 hours at 37° C., LDH readout of parasite growth
Summary of the method: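 Growth was read by an LDH assay after a freeze–thaw cycle (−80 °C overnight, 4 h thaw at RT). Before that, parasites grew with compound for 72 h at 37 °C under gassed, humidified conditions. The input was a ring-stage culture adjusted to 0.7% parasitemia and 2% haematocrit in serum (5%)/albumax (0.5%)-supplemented RPMI-Hepes.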

Compound | EC50 [nM]
CCC1(CC)CC(=O)N([C@@H]2CC(COC)Oc3ccc(C(=O)N[C@H]4CC(C)(C)Oc5ccccc54)cc32)C(=N)N1 (single isomer, unassigned) [Example 16B] | 95
CC[C@]1(C)CC(=O)N(C2CC(C)Oc3ccc(C(=O)N[C@@H]4c5ccccc5OC[C@@]4(C)O)cc32)C(=N)N1 (single isomer, unassigned) [Example 181A] | 189
CCC1(CC)CC(=O)N([C@@H]2CCOc3ccc(C(=O)NC4c5ccccc5OC4(C)CO)cc32)C(=N)N1 (single isomer, unassigned) [Example 176A] | 29.2
CCC1(CC)C[C@@H](N2C(=N)NC(C)(C)CC2=O)c2cc(C(=O)N[C@@H]3c4ccccc4CC3(C)O)ccc2O1 (single isomer, unassigned) [Example 55A] | 24.5

Same assay, conditions: Plasmodium falciparum, Erythrocyte, 72 h, 0.7% rings, 2% haematocrit, 72 hours at 37° C., LDH readout of parasite growth

Compound | EC50 [nM]
CCC1(CC)CC(=O)N([C@@H]2CCOc3ccc(C(=O)N[C@H]4CCOc5ccccc54)cc32)C(=N)N1 [Example 3A, (R)-N-((S)-chroman-4-yl)-4-(4,4-diethyl-2-imino-6-oxotetrahydropyrimidin-1(2H)-yl)chromane-6-carboxamide] | 2.2
COC1COc2ccc(C(=O)N[C@@H]3c4ccccc4OC[C@@]3(C)O)cc2C1N1C(=N)NC(C)(C)CC1=O (stereo partly drawn) [Example 186, N-[(3S,4R)-3-hydroxy-3-methyl-chroman-4-yl]-4-(2-imino-4,4-dimethyl-6-oxo-hexahydropyrimidin-1-yl)-3-methoxy-chromane-6-carboxamide] | 70
CC[C@]1(C)CC(=O)N([C@@H]2C[C@@H](C)c3ccc(C(=O)N[C@@H]4c5ccccc5C[C@H]4O)cc32)C(=N)N1 [Example 88, (1R,3R)-3-[(4R)-4-ethyl-2-imino-4-methyl-6-oxo-hexahydropyrimidin-1-yl]-N-[(1R,2R)-2-hydroxyindan-1-yl]-1-methyl-indane-5-carboxamide] | 3.4
CCC1(CC)CC(=O)N([C@@H]2CCOc3ccc(C(=O)N[C@H]4c5cc(F)ccc5OC(C)(C)[C@@H]4O)cc32)C(=N)N1 [Example 25B, (R)-4-(4,4-diethyl-2-imino-6-oxotetrahydropyrimidin-1(2H)-yl)-N-((3R,4S)-6-fluoro-3-hydroxy-2,2-dimethylchroman-4-yl)chromane-6-carboxamide] | 59.8
CC[C@]1(C)CC(=O)N([C@@H]2CCOc3ccc(C(=O)N[C@@H]4c5cc(Cl)ccc5OC[C@H]4O)cc32)C(=N)N1 [Example 196, (4R)-N-[(3S,4R)-6-chloro-3-hydroxy-chroman-4-yl]-4-[(4R)-4-ethyl-2-imino-4-methyl-6-oxo-hexahydropyrimidin-1-yl]chromane-6-carboxamide] | 8.6
CCC1(CC)CC(=O)N([C@H]2C[C@@H](OC)c3ccc(C(=O)N[C@@H]4c5ccccc5C[C@H]4O)cc32)C(=N)N1 [Example 116, (1R,3S)-3-(4,4-diethyl-2-imino-6-oxo-hexahydropyrimidin-1-yl)-N-[(1R,2R)-2-hydroxyindan-1-yl]-1-methoxy-indane-5-carboxamide] | 210
CCC1(CC)CC(=O)N([C@@H]2CCOc3ccc(C(=O)NC(CC4CCCCC4)c4ccccc4)cc32)C(=N)N1 (stereo partly drawn) [Example 233, (4R)-N-(2-cyclohexyl-1-phenyl-ethyl)-4-(4,4-diethyl-2-imino-6-oxo-hexahydropyrimidin-1-yl)chromane-6-carboxamide] | 7.9
CC1(C)CC(=O)N([C@@H]2CC(C)(C)c3ccc(C(=O)N[C@@H]4c5ccccc5OC[C@@]4(C)O)cc32)C(=N)N1 [Example 124, (3R)-N-[(3S,4R)-3-hydroxy-3-methyl-chroman-4-yl]-3-(2-imino-4,4-dimethyl-6-oxo-hexahydropyrimidin-1-yl)-1,1-dimethyl-indane-5-carboxamide] | 57.5
CCC1(CC)CC(=O)N([C@@H]2CCOc3ccc(C(=O)N[C@@H]4c5cc(Cl)ccc5OC[C@@]4(C)O)cc32)C(=N)N1 [Example 266, (4R)-N-[(3S,4R)-6-chloro-3-hydroxy-3-methyl-chroman-4-yl]-4-(4,4-diethyl-2-imino-6-oxo-hexahydropyrimidin-1-yl)chromane-6-carboxamide] | 2.6
CC1(C)CC(=O)N([C@@H]2CCS(=O)(=O)c3ccc(C(=O)N[C@@H]4c5ccccc5OC(C)(C)[C@H]4O)cc32)C(=N)N1 [Example 265, (4R)-N-[(3S,4R)-3-hydroxy-2,2-dimethyl-chroman-4-yl]-4-(2-imino-4,4-dimethyl-6-oxo-hexahydropyrimidin-1-yl)-1,1-dioxo-3,4-dihydro-2H-thiochromene-6-carboxamide] | 31.1
CCC1(CC)CC(=O)N([C@H]2c3cc(C(=O)N[C@@H]4c5ccccc5OC(C)(C)[C@H]4O)ccc3CC[C@@H]2OC)C(=N)N1 [Example 276, (3S,4S)-4-(4,4-diethyl-2-imino-6-oxo-hexahydropyrimidin-1-yl)-N-[(3S,4R)-3-hydroxy-2,2-dimethyl-chroman-4-yl]-3-methoxy-tetralin-6-carboxamide] | 0.6
CC1(C)CC(=O)N([C@H]2CCS(=O)(=O)c3ccc(C(=O)N[C@H]4C[C@H](C(F)(F)F)Oc5ccccc54)cc32)C(=N)N1 [Example 294, (4S)-4-(2-imino-4,4-dimethyl-6-oxo-hexahydropyrimidin-1-yl)-1,1-dioxo-N-[(2R,4S)-2-(trifluoromethyl)chroman-4-yl]-3,4-dihydro-2H-thiochromene-6-carboxamide] | 259
CCC1(CC)CC(=O)N([C@H]2c3cc(C(=O)N[C@H]4CC(C)(C)Oc5ccccc54)ccc3OCC2OC)C(=N)N1 (stereo partly drawn) [Example 68A, (3R,4S)-4-(4,4-diethyl-2-imino-6-oxotetrahydropyrimidin-1(2H)-dimethylchroman-4-yl)-3-methoxychromane-6-carboxamide] | 1
CCC1(CC)CC(=O)N([C@@H]2CCOc3ccc(C(=O)NC4c5ccc(C(F)(F)F)cc5CC4N)cc32)C(=N)N1 (stereo partly drawn) [Example 271, (4R)-N-[2-amino-5-(trifluoromethyl)indan-1-yl]-4-(4,4-diethyl-2-imino-6-oxo-hexahydropyrimidin-1-yl)chromane-6-carboxamide] | 182
CCC1(CC)CC(=O)N([C@@H]2CCOc3ccc(C(=O)N[C@H]4c5ccccc5C5(CC5)[C@@H]4O)cc32)C(=N)N1 [Example 155, (4R)-4-(4,4-diethyl-2-imino-6-oxo-hexahydropyrimidin-1-yl)-N-[(1′S,2′S)-2′-hydroxyspiro[cyclopropane-1,3′-indane]-1′-yl]chromane-6-carboxamide] | 82.5
CC[C@]1(C)CC(=O)N([C@H]2c3cc(C(=O)N[C@@H]4c5ccccc5OC(C)(C)[C@H]4O)ccc3C[C@@H]2C)C(=N)N1 [Example 169, (2S,3R)-3-[(4R)-4-ethyl-2-imino-4-methyl-6-oxo-hexahydropyrimidin-1-yl]-N-[(3S,4R)-3-hydroxy-2,2-dimethyl-chroman-4-yl]-2-methyl-indane-5-carboxamide] | 0.3
CC[C@]1(C)CC(=O)N([C@@H]2CCOc3ccc(C(=O)N[C@H]4C[C@@H](COC(F)F)Oc5ccccc54)cc32)C(=N)N1 [Example 270, (4R)-N-[(2S,4S)-2-(difluoromethoxymethyl)chro-man-4-yl]-4-[(4R)-4-ethyl-2-imino-4-methyl-6-oxo-hexahydropyrimidin-1-yl]chromane-6-carboxamide] | 1.8
CCC1(CC)CC(=O)N([C@@H]2CCOc3ccc(C(=O)N[C@@H]4c5cc(Cl)ccc5OC[C@H]4O)cc32)C(=N)N1 [Example 231, (4R)-N-[(3S,4R)-6-chloro-3-hydroxy-chroman-4-yl]-4-(4,4-diethyl-2-imino-6-oxo-hexahydropyrimidin-1-yl)chromane-6-carboxamide] | 7.4
CCC1(CC)CC(=O)N([C@@H]2CCOc3ccc(C(=O)N[C@H]4CC(C)(C)Oc5ccc(Br)cc54)cc32)C(=N)N1 [Example 14A, (R)-N-((S)-6-bromo-2,2-dimethylchroman-4-yl)-4-(4,4-diethyl-2-imino-6-oxotetrahydropyrimidin-1(2H)-yl)chromane-6-carboxamide] | 1
CCC1(CC)CC(=O)N([C@@H]2C[C@@H](C)Oc3ccc(C(=O)N[C@@H]4c5ccccc5C[C@@]4(C)O)cc32)C(=N)N1 [Example 164, (2R,4R)-4-(4,4-diethyl-2-imino-6-oxo-hexahydropyrimidin-1-yl)-N-[(1R,2R)-2-hydroxy-2-methyl-indan-1-yl]-2-methyl-chromane-6-carboxamide] | 2.4
CC1(C)CC(=O)N([C@@H]2CCc3ccc(C(=O)N[C@@H]4c5ccccc5C[C@]4(C)O)cc32)C(=N)N1 [Example 79, (3R)-N-[(1R,2S)-2-hydroxy-2-methyl-indan-1-yl]-3-(2-imino-4,4-dimethyl-6-oxo-hexahydropyrimidin-1-yl)indane-5-carboxamide] | 9.6
CC[C@]1(C)CC(=O)N([C@@H]2CCOc3ccc(C(=O)N[C@@H]4C[C@@H](COC(F)F)Oc5ccccc54)cc32)C(=N)N1 [Example 267, (4R)-N-[(2S,4R)-2-(difluoromethoxymethyl)chro-man-4-yl]-4-[(4R)-4-ethyl-2-imino-4-methyl-6-oxo-hexahydropyrimidin-1-yl]chromane-6-carboxamide] | 24
CC[C@]1(C)CC(=O)N([C@@H]2CCc3ccc(C(=O)N[C@@H]4c5ccccc5OC(C)(C)[C@H]4O)cc32)C(=N)N1 [Example 121, (3R)-3-[(4R)-4-ethyl-2-imino-4-methyl-6-oxo-hexahydropyrimidin-1-yl]-N-[(3S,4R)-3-hydroxy-2,2-dimethyl-chroman-4-yl]indane-5-carboxamide] | 0.6
CC[C@]1(C)CC(=O)N(C2c3cc(C(=O)N[C@@H]4c5ccccc5OC[C@@]4(C)O)ccc3OCC2OC)C(=N)N1 (stereo partly drawn) [Example 218, 4-[(4R)-4-ethyl-2-imino-4-methyl-6-oxo-hexahydropyrimidin-1-yl]-N-[(3S,4R)-3-hydroxy-3-methyl-chroman-4-yl]-3-methoxy-chromane-6-carboxamide] | 64
